Data published in patent publication US20150105252A1, “SUBSTITUTED PYRAZOLES AS HERBICIDES” (E I DU PONT DE NEMOURS AND COMPANY, priority 2013, published 2015).

Assays:
foxtail, giant = test: Test A preemergence; type: in vivo, Setaria faberii; settings: preemergence; for Foxtail, Giant plant response rating (0 to 100 scale): visual injury approx. 10 days after treatment
Procedure, shortened: (§1)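 Greenhouse test in loam soil/sand blend; compounds formulated in non-phytotoxic solvent with surfactant, applied as preemergence directed soil spray or postemergence to plants 2–10 cm tall at one- to two-leaf stage. Injury rated visually versus untreated controls after approximately 10 days on a 0 (no effect) to 100 (complete control) scale.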

barnyardgrass [1] = test: Test A postemergence; type: in vivo, Echinochloa crus-galli
Procedure, shortened: as §1

rice = test: Test B flood; type: in vivo, Oryza sativa; settings: 250 g ai/ha, visual rating on 0 to 100 scale (0 no effect, 100 complete control), 13 to 15 days
Procedure, shortened: (§2)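 Each compound is applied to the floodwater of pots holding 2-leaf seedlings, water standing 3 cm over the soil throughout. Plants stay in a greenhouse 13 to 15 days before visual scoring against controls from 0 (no effect) to 100 (complete control).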

ducksalad = test: Test B flood; type: in vivo, Heteranthera limosa; settings: 250 g ai/ha, visual rating on 0 to 100 scale (0 no effect, 100 complete control), 13 to 15 days
Procedure, shortened: as §2

barnyardgrass [2] = test: Test B flood; type: in vivo, Echinochloa crus-galli; settings: 250 g ai/ha, visual rating on 0 to 100 scale (0 no effect, 100 complete control), 13 to 15 days
Procedure, shortened: as §2

waterhemp = test: Test C preemergence; type: in vivo, Amaranthus rudis
Source text: (§3) Seeds of plant species selected from blackgrass (Alopecurus myosuroides), ryegrass, Italian (Italian ryegrass, Lolium multiflorum), wheat (winter wheat, Triticum aestivum), galium (catchweed bedstraw, Galium aparine), corn (Zea mays), crabgrass, large (large crabgrass, Digitaria sanguinalis), foxtail, giant (giant foxtail, Setaria faberii), johnsongrass (Sorghum halepense), lambsquarters (Chenopodium album), morningglory (Ipomoea coccinea), nutsedge, yellow (yellow nutsedge, Cyperus esculentus), pigweed (redroot pigweed, Amaranthus retroflexus), ragweed (common ragweed, Ambrosia elation), soybean (Glycine max), barnyardgrass (Echinochloa crus-galli), oilseed rape (Brassica napus), waterhemp (common waterhemp, Amaranthus rudis), oat, wild (wild oat, Avena fatua), kochia (Kochia scoparia), Surinam grass (Brachiaria decumbens), foxtail, green (green foxtail, Setaria viridis), goosegrass (Eleusine indica), bromegrass, downy (downy bromegrass, Bromus tectorum), nightshade (eastern black nightshade, Solanum ptycanthum), cocklebur (common cocklebur, Xanthium strumarium), cupgrass, woolly (woolly cupgrass, Eriochloa villosa), bermudagrass (Cynodon dactylon), sunflower, (common oilseed sunflower, Helianthus annuus), Russian thistle (Salsola kali), and velvetleaf (Abutilon theophrasti) were planted into a blend of loam soil and sand and treated preemergence with test chemicals formulated in a non-phytotoxic solvent mixture which included a surfactant.
(§4) At the same time, plants selected from these crop and weed species and also chickweed (common chickweed, Stellaria media), canarygrass (littleseed canarygrass, Phalaris minor), and deadnettle (henbit deadnettle, Lamium amplexicaule), were planted in pots containing Redi-Earth® planting medium (Scotts Company, 14111 Scottslawn Road, Marysville, Ohio 43041) comprising spaghnum peat moss, vermiculite, wetting agent and starter nutrients and treated with postemergence applications of test chemicals formulated in the same manner. Plants ranged in height from 2 to 18 cm (1- to 4-leaf stage) for postemergence treatments. Treated plants and controls were maintained in a greenhouse for 13 to 15 days, after which time all species were compared to controls and visually evaluated. Plant response ratings, summarized in Table C, are based on a scale of 0 to 100 where 0 is no effect and 100 is complete control. A dash (-) response means no test result.

johnsongrass = test: Test C postemergence; type: in vivo, Sorghum halepense
Source text: as §3, §4

lambsquarters = test: Test C postemergence; type: in vivo, Chenopodium album; settings: postemergence
Source text: as §3, §4

nutsedge, yellow = test: Test C postemergence; type: in vivo, Cyperus esculentus
Source text: as §3, §4

pigweed = test: Test C postemergence; type: in vivo, Amaranthus retroflexus
Source text: as §3, §4

oilseed rape = test: Test C postemergence; type: in vivo, Brassica napus
Source text: as §3, §4

oat, wild = test: Test C postemergence; type: in vivo, Avena fatua
Source text: as §3, §4

kochia = test: Test C postemergence; type: in vivo, Kochia scoparia
Source text: as §3, §4

velvetleaf = test: Test C postemergence; type: in vivo, Abutilon theophrasti; settings: for Velvetleaf plant response rating: scale 0 to 100
Source text: as §3, §4

[3] = 125 g ai/ha, visual injury, 0 to 100 scale, approx. 10 days
[4] = 500 g ai/ha, visual injury after approx. 10 days, 0 to 100 scale (0 no effect, 100 complete control)
[5] = Postemergence, 500 g ai/ha, 0 to 100 scale (0 no effect, 100 complete control)
[6] = postemergence, 125 g ai/ha, about 10 days, visual rating on 0 to 100 scale (0 no effect, 100 complete control)
[7] = preemergence, 31 g ai/ha, visual rating, scale 0 to 100 (0 no effect, 100 complete control), 13 to 15 days
[8] = preemergence, 62 g ai/ha, scale 0 to 100 (0 no effect, 100 complete control), 13 to 15 days
[9] = preemergence, 125 g ai/ha, 13 to 15 days, scale 0 to 100, 0 = no effect, 100 = complete control
[10] = preemergence, 250 g ai/ha, scale 0 to 100, 0 is no effect, 100 is complete control
[11] = Postemergence, 31 g ai/ha, visually evaluated after 13 to 15 days
[12] = postemergence, 62 g ai/ha, scale 0 to 100
[13] = postemergence, 250 g ai/ha, scale 0 to 100 (0 no effect, 100 complete control)
[14] = postemergence, 125 g ai/ha, scale 0 to 100, 0 no effect, 100 complete control

Compound: O=C(NCC(F)(F)F)c1cc(CCCl)n(Cc2ccnc(C(F)(F)F)c2)n1 [Compound 143]
- Foxtail, Giant plant response rating (foxtail, giant; [3]): 100
- Foxtail, Giant plant response rating (foxtail, giant; [4]): 100
- Barnyardgrass plant response rating (barnyardgrass [1]; [5]): 90
- Barnyardgrass plant response rating (barnyardgrass [1]; [6]): 60
- Plant response rating, Rice (rice): 25
- Plant response rating, Ducksalad (ducksalad): 100
- Plant response rating, Barnyardgrass (barnyardgrass [2]): 45
- Waterhemp plant response rating (waterhemp; [7]): 98
- Waterhemp plant response rating (waterhemp; [8]): 98
- Plant response rating, Waterhemp (waterhemp; [9]): 100
- Waterhemp plant response rating (waterhemp; [10]): 100

Compound: CCNC(=O)c1cc(CCCl)n(Cc2ccnc(C(F)(F)F)c2)n1 [Compound 179]
- Foxtail, Giant plant response rating (0 to 100 scale) (foxtail, giant; 125 g ai/ha): 100
- Foxtail, Giant plant response rating (foxtail, giant; [4]): 100
- Barnyardgrass plant response rating (barnyardgrass [1]; [5]): 90
- Barnyardgrass plant response rating (barnyardgrass [1]; [6]): 70
- Plant response rating, Rice (rice): 0
- Plant response rating, Ducksalad (ducksalad): 100
- Plant response rating, Barnyardgrass (barnyardgrass [2]): 25
- Waterhemp plant response rating (waterhemp; [7]): 100
- Waterhemp plant response rating (waterhemp; [8]): 100
- Plant response rating, Waterhemp (waterhemp; [9]): 100
- Waterhemp plant response rating (waterhemp; [10]): 100

Compound: CCc1cc(C(=O)NC2CC2)nn1Cc1cc(C(F)(F)C(F)(F)F)nn1C [Compound 226]
- Foxtail, Giant plant response rating (0 to 100 scale) (foxtail, giant; 125 g ai/ha): 100
- Foxtail, Giant plant response rating (foxtail, giant; [4]): 100
- Barnyardgrass plant response rating (barnyardgrass [1]; Postemergence, 125 g ai/ha, 0 to 100 scale, 0 no effect, 100 complete control): 60
- Barnyardgrass plant response rating (barnyardgrass [1]; [5]): 90
- Plant response rating, Rice (rice): 30
- Plant response rating, Ducksalad (ducksalad): 90
- Plant response rating, Barnyardgrass (barnyardgrass [2]): 50
- Plant response rating, Waterhemp (waterhemp; Preemergence, rate head not shown (block before 16 g ai/ha), scale 0 to 100): 100
- Waterhemp plant response rating (waterhemp; [8]): 100
- Plant response rating, Waterhemp (waterhemp; [9]): 100
- Waterhemp plant response rating (waterhemp; [10]): 100

Compound: CCONC(=O)c1cc(OCC)n(Cc2ccnc(C(F)(F)F)c2)n1 [Compound 195]
- Foxtail, Giant plant response rating (0 to 100 scale) (foxtail, giant; 125 g ai/ha): 90
- Foxtail, Giant plant response rating (foxtail, giant; [4]): 90
- Barnyardgrass plant response rating (barnyardgrass [1]; [5]): 90
- Barnyardgrass plant response rating (barnyardgrass [1]; [6]): 70
- Plant response rating, Rice (rice): 10
- Plant response rating, Ducksalad (ducksalad): 95
- Plant response rating, Barnyardgrass (barnyardgrass [2]): 10
- Waterhemp plant response rating (waterhemp; [8]): 100
- Plant response rating, Waterhemp (waterhemp; [9]): 100
- Waterhemp plant response rating (waterhemp; [10]): 100

Compound: CCCNC(=O)c1cc(CCCl)n(Cc2ccnc(C(F)(F)F)c2)n1 [Compound 145]
- Foxtail, Giant plant response rating (0 to 100 scale) (foxtail, giant; 125 g ai/ha): 100
- Foxtail, Giant plant response rating (foxtail, giant; [4]): 100
- Barnyardgrass plant response rating (barnyardgrass [1]; [5]): 90
- Barnyardgrass plant response rating (barnyardgrass [1]; [6]): 60
- Plant response rating, Rice (rice): 25
- Plant response rating, Ducksalad (ducksalad): 100
- Plant response rating, Barnyardgrass (barnyardgrass [2]): 45
- Waterhemp plant response rating (waterhemp; [7]): 98
- Waterhemp plant response rating (waterhemp; [8]): 100
- Plant response rating, Waterhemp (waterhemp; [9]): 100
- Waterhemp plant response rating (waterhemp; [10]): 100

Compound: CCCc1cc(C(=O)NCC(F)(F)F)nn1Cc1cc(C(F)(F)F)nn1C [Compound 138]
- Foxtail, Giant plant response rating (foxtail, giant; [3]): 100
- Foxtail, Giant plant response rating (foxtail, giant; [4]): 100
- Barnyardgrass plant response rating (barnyardgrass [1]; [5]): 100
- Barnyardgrass plant response rating (barnyardgrass [1]; [6]): 100
- Plant response rating, Rice (rice): 50
- Plant response rating, Ducksalad (ducksalad): 80
- Plant response rating, Barnyardgrass (barnyardgrass [2]): 50
- Plant response rating (scale of 0 to 100 where 0 is no effect and 100 is complete control), Johnsongrass (johnsongrass; [11]): 10
- Johnsongrass plant response rating (johnsongrass; [12]): 10
- Plant response rating, Johnsongrass (johnsongrass; [13]): 20
- Plant response rating, Johnsongrass (johnsongrass; [14]): 10
- Lambsquarters plant response rating (lambsquarters; 62 g ai/ha, scale 0 to 100): 40
- Plant response rating, Lambsquarters (lambsquarters; 250 g ai/ha, scale 0 to 100 (0 no effect, 100 complete control)): 95
- Plant response rating, Lambsquarters (lambsquarters; 125 g ai/ha, scale 0 to 100, 0 no effect, 100 complete control): 75
- Plant response rating (scale of 0 to 100 where 0 is no effect and 100 is complete control), Nutsedge, Yellow (nutsedge, yellow; [11]): 0
- Nutsedge, Yellow plant response rating (nutsedge, yellow; [12]): 0
- Plant response rating, Nutsedge, Yellow (nutsedge, yellow; [13]): 5
- Plant response rating, Nutsedge, Yellow (nutsedge, yellow; [14]): 5
- Plant response rating (scale of 0 to 100 where 0 is no effect and 100 is complete control), Pigweed (pigweed; [11]): 75
- Pigweed plant response rating (pigweed; [12]): 85
- Plant response rating, Pigweed (pigweed; [13]): 85
- Plant response rating, Pigweed (pigweed; [14]): 80
- Plant response rating (scale of 0 to 100 where 0 is no effect and 100 is complete control), Oilseed Rape (oilseed rape; [11]): 55
- Oilseed Rape plant response rating (oilseed rape; [12]): 60
- Plant response rating, Oilseed Rape (oilseed rape; [13]): 60
- Plant response rating, Oilseed Rape (oilseed rape; [14]): 80
- Plant response rating (scale of 0 to 100 where 0 is no effect and 100 is complete control), Oat, Wild (oat, wild; [11]): 10
- Oat, Wild plant response rating (oat, wild; [12]): 20
- Plant response rating, Oat, Wild (oat, wild; [13]): 30
- Plant response rating, Oat, Wild (oat, wild; [14]): 10
- Plant response rating (scale of 0 to 100 where 0 is no effect and 100 is complete control), Kochia (kochia; [11]): 100
- Kochia plant response rating (kochia; [12]): 90
- Plant response rating, Kochia (kochia; [13]): 90
- Plant response rating, Kochia (kochia; [14]): 90
- Plant response rating (scale of 0 to 100 where 0 is no effect and 100 is complete control), Velvetleaf (velvetleaf; [11]): 30
- Velvetleaf plant response rating (velvetleaf; postemergence, 62 g ai/ha): 40
- Plant response rating, Velvetleaf (velvetleaf; [13]): 50
- Velvetleaf plant response rating (velvetleaf; postemergence): 25

Compound: CCONC(=O)c1cc(CC)n(Cc2cc(C(F)(F)F)no2)n1 [Compound 125]
- Foxtail, Giant plant response rating (foxtail, giant; [3]): 80
- Foxtail, Giant plant response rating (foxtail, giant; [4]): 100
- Barnyardgrass plant response rating (barnyardgrass [1]; [5]): 90
- Barnyardgrass plant response rating (barnyardgrass [1]; [6]): 30
- Plant response rating, Rice (rice): 10
- Plant response rating, Ducksalad (ducksalad): 60
- Plant response rating, Barnyardgrass (barnyardgrass [2]): 20
- Plant response rating (scale of 0 to 100), Waterhemp (waterhemp; Preemergence, 250 g ai/ha): 90
- Waterhemp plant response rating (waterhemp; [7]): 65
- Waterhemp plant response rating (waterhemp; [8]): 65
- Waterhemp plant response rating (waterhemp; preemergence, 125 g ai/ha, scale 0 to 100, 0 is no effect, 100 is complete control): 85
